Data: publication PMC5372986, “Diminished Antimicrobial Peptide and Antifungal Antibiotic Activities against Candida albicans in Denture Adhesive” (Antibiotics, 2017)
In brackets after ≈: the same amount, converted by molar mass. Where two headings read alike, the source gives them in different places.

Key:
[1] = test system: Candida albicans; conditions: broth microdilution, p < 0.05; cited from earlier work
Description: Candida species infections can cause complications for individuals with dentures, such as denture stomatitis.

[2] = test system: C. albicans ATCC 64124; experiment: microbe, parasite or virus in culture; conditions: for Activity in gels with 1.0% denture adhesive compared with gels without / Minimal inhibitory concentration (MIC): C. albicans ATCC 64124; for Activity in gels with 1.0% denture adhesive compared with gels without: result in words, Tukey HSD, 0.05 level; for MIC: Candida albicans
Protocol: (§1) C. albicans strains ATCC 64124 and HMV4C were used and cultivated as previously described. Their identities were verified (State Hygienic Laboratory, University of Iowa Research Park, Coralville, IA, USA). These cultures were adjusted to contain 1.2–3.7 × 10^6 CFU/mL in Roswell Park Memorial Institute (RPMI) 1640 medium.
(§2) The denture adhesive used was a standard, over-the-counter gel containing poly sodium-calcium mixed partial salt, petrolatum, cellulose gum, and mineral oil and was prepared as previously described. Denture adhesive was too viscous to use directly and was diluted to 1.0% for incorporation into the radial diffusion assay.
(§3) Each agent was reconstituted in distilled water with 0.01% acetic acid for resuspension to keep the agent in solution. Two-fold dilutions were prepared.
(§4) The radial diffusion assays were performed as described with the following unique modifications. Underlay agarose gels were prepared with and without 1.0% denture adhesive in square petri dishes (Electron Microscopy Sciences, Hatfield, PA, USA). Plates without 1.0% adhesive contained 12.5 mL of 10.0 mM sodium phosphate buffer adjusted to pH 7.4, 12.5 mL of 2.0% agarose (Agarose LE, Roche Diagnostics Corporation, Indianapolis, IN, USA) in 10.0 mM sodium phosphate adjusted to pH 7.4, and 1.0 mL of C. albicans culture per plate. Plates with 1.0% adhesive contained 12.5 mL of 2.0% dental adhesive in 10.0 mM sodium phosphate adjusted to pH 7.4, 12.5 mL 2.0% agarose (Agarose LE, Roche Diagnostics Corporation, Indianapolis, IN, USA) in 10.0 mM sodium phosphate adjusted to pH 7.4, and 1.0 mL of C. albicans culture. Wells of 2.0 mm in diameter were created and filled with 5.0 µL of AMP or antifungal antibiotic dilution (n = three replications per test). A blank of 0.01% acetic acid in distilled water was also included. The plates were incubated at 37 °C for 3 h. After incubation, 10.0 mL of overlay containing 1.0% agarose in 10.0 mM phosphate buffer with 6.0% RPMI 1640, was added to each plate. The plates were incubated at 37 °C overnight. At 24 h, antimicrobial activity was determined by measuring the zone of clearance around the center of each well and extrapolating MIC as described.
(§5) When MICs fell outside the range of the assay, we considered the MIC to be equal to the highest concentration used in the assay. […] One-way fixed-effects ANOVA models were fit to the µM MIC values. Pairwise group comparisons were conducted using the method of Tukey’s Honest Significant Differences (HSD). A 0.05 level was used to determine statistically significant differences. All analyses were conducted using JMP (Version 10.0, SAS, Cary, NC, USA).

[3] = test system: C. albicans HMV4C; experiment: microbe, parasite or virus in culture; conditions: radial diffusion; for Activity in gels with 1.0% denture adhesive compared with gels without / Minimal inhibitory concentration (MIC): C. albicans HMV4C; for Activity in gels with 1.0% denture adhesive compared with gels without: result in words, Tukey HSD, 0.05 level; for Minimal inhibitory concentration (MIC) / MIC: mean (standard error, n = 3); for MIC: Candida albicans, HMV4C
Protocol: as §1, §2, §3, §4, §5

[4] = Adhesive (1.0% denture adhesive in gel), radial diffusion, pH 7.4, 37 °C, read at 24 h, mean (standard error, n = 3)
[5] = Adhesive (1.0% denture adhesive in gel), radial diffusion, mean (standard error, n = 3)
[6] = No Adhesive, radial diffusion, pH 7.4, 37 °C, read at 24 h, mean (standard error, n = 3)
[7] = No Adhesive, radial diffusion, mean (standard error, n = 3)
[8] = Adhesive (1.0% denture adhesive in gel), pH 7.4, 37 °C, read at 24 h
[9] = Adhesive (1.0% denture adhesive in gel)
[10] = No Adhesive, agarose in 10.0 mM sodium phosphate pH 7.4, 37 °C, read at 24 h
[11] = ATCC64124, 24 h, pH 7.4, read-out: Minimal inhibitory concentration (MIC), C. albicans ATCC 64124, Adhesive (1.0% denture adhesive in gel), radial diffusion, pH 7.4, 37 °C, read at 24 h, mean (standard error, n = 3)
[12] = ATCC64124, 24 h, pH 7.4, read-out: Minimal inhibitory concentration (MIC), C. albicans ATCC 64124, No Adhesive, radial diffusion, pH 7.4, 37 °C, read at 24 h, mean (standard error, n = 3)
[13] = ATCC64124, read-out: Minimal inhibitory concentration (MIC), C. albicans ATCC 64124, Adhesive (1.0% denture adhesive in gel), radial diffusion, mean (standard error, n = 3)
[14] = ATCC64124, read-out: Minimal inhibitory concentration (MIC), C. albicans ATCC 64124, No Adhesive, radial diffusion, mean (standard error, n = 3)
[15] = 24 h, pH 7.4, read-out: Minimal inhibitory concentration (MIC), C. albicans HMV4C, Adhesive (1.0% denture adhesive in gel), pH 7.4, 37 °C, read at 24 h
[16] = 24 h, pH 7.4, read-out: Minimal inhibitory concentration (MIC), C. albicans HMV4C, No Adhesive, agarose in 10.0 mM sodium phosphate pH 7.4, 37 °C, read at 24 h
[17] = read-out: Minimal inhibitory concentration (MIC), C. albicans HMV4C, Adhesive (1.0% denture adhesive in gel)
[18] = read-out: Minimal inhibitory concentration (MIC), C. albicans HMV4C, No Adhesive

Compound | Loss of antimicrobial activity in 1.0% denture adhesive [1] | Activity in gels with 1.0% denture adhesive compared with gels without ([2]; radial diffusion) | Activity in gels with 1.0% denture adhesive compared with gels without [3] | Minimal inhibitory concentration (MIC) [2, 4] | Minimal inhibitory concentration (MIC) [2, 5] | Minimal inhibitory concentration (MIC) [2, 6] | Minimal inhibitory concentration (MIC) [2, 7] | Minimal inhibitory concentration (MIC) [3, 8] | Minimal inhibitory concentration (MIC) [3, 9] | Minimal inhibitory concentration (MIC) [3, 10] | Minimal inhibitory concentration (MIC) ([3]; No Adhesive) | MIC [2, 11] [µg/mL] | MIC [2, 12] [µg/mL] | MIC [2, 13] [µM] | MIC [2, 14] [µM] | MIC [3, 15] [µg/mL] | MIC [3, 16] [µg/mL] | MIC [3, 17] [µM] | MIC [3, 18] [µM] | also measured
CC[C@H](C)[C@@H]1NC(=O)[C@H](CO)NC(=O)[C@@H]2CCCN2C(=O)[C@H](C)NC(=O)CNC(=O)[C@H](CC(C)C)NC(=O)[C@H](CCCCN)NC(=O)[C@H](CCCCN)NC(=O)[C@H](CCSC)NC(=O)[C@H](CCCNC(=N)N)NC(=O)[C@H](Cc2c[nH]c3ccccc23)NC(=O)[C@H](CCC(N)=O)NC(=O)[C@H](Cc2c[nH]c3ccccc23)NC(=O)[C@H](CCCNC(=N)N)NC(=O)[C@H](CCCNC(=N)N)NC(=O)[C@@H](NC(=O)[C@H](CCCCN)NC(=O)[C@@H](N)Cc2ccccc2)CSSC[C@@H](C(=O)N[C@H](C(=O)N[C@@H](CCCNC(=N)N)C(=O)N[C@@H](CCCNC(=N)N)C(=O)N[C@@H](C)C(=O)N[C@@H](Cc2ccccc2)C(=O)O)C(C)C)NC(=O)[C@H]([C@@H](C)O)NC1=O [Lactoferricin B] | lost antimicrobial activity | diminished activity | diminished activity | – | – | – | – | – | – | – | – | – | – | – | – | – | – | – | – | –
N=C(NCCCCCCNC(=N)NC(=N)Nc1ccc(Cl)cc1)NC(=N)Nc1ccc(Cl)cc1.O=C(O)[C@H](O)[C@@H](O)[C@H](O)[C@H](O)CO.O=C(O)[C@H](O)[C@@H](O)[C@H](O)[C@H](O)CO [Chlorhexidine gluconate] | did not | diminished antimicrobial activity | same antimicrobial activity | 81.6 (3.2) µg/mL | 90.9 (3.6) µM | 4.1 (0.2) µg/mL | 4.6 (0.2) µM | 0.7 (0.4) µg/mL | 0.8 (0.4) µM | 6.3 (0.1) µg/mL | 7.0 (0.1) µM | – | – | – | – | – | – | – | – | –
OC(Cn1cncn1)(Cn1cncn1)c1ccc(F)cc1F [Fluconazole] | did not | same | same | – | – | – | – | – | – | – | – | > 1000 | > 1000 | > 3270 | > 3270 | 8.1 | 3.9 | 26.4 | 12.7 | Minimal inhibitory concentration (MIC) ([2]; in both gels with or without 1.0% denture adhesive): 3265.1 µM (≈ 1000 µg/mL); MIC ([2]; ATCC64124, read-out: Minimal inhibitory concentration (MIC), C. albicans ATCC 64124, in both gels with or without 1.0% denture adhesive): > 1000 µg/mL
C[C@@H]1[C@H](O)[C@@H](C)/C=C/C=C/CC/C=C/C=C/C=C/C=C/C(O[C@H]2O[C@H](C)[C@@H](O)[C@H](N)[C@@H]2O)CC2O[C@](O)(CC(O)C(O)CCC(O)CC(O)CC(O)CC(=O)O[C@H]1C)CC(O)C2C(=O)O (stereo partly shown) [Nystatin] | did not | diminished | diminished | 61.0 (2.5) µg/mL | 65.9 (2.7) µM | 9.7 (0.2) µg/mL | 10.5 (0.2) µM | 137.2 (8.2) µg/mL | 148.1 (8.9) µM | 9.4 (0.2) µg/mL | 10.2 (0.2) µM | – | – | – | – | – | – | – | – | –
C[C@@H]1[C@H](O)[C@@H](C)/C=C/C=C/C=C/C=C/C=C/C=C/C=C/[C@H](O[C@@H]2O[C@H](C)[C@@H](O)[C@H](N)[C@@H]2O)C[C@@H]2O[C@](O)(C[C@@H](O)C[C@@H](O)[C@H](O)CC[C@@H](O)C[C@@H](O)CC(=O)O[C@H]1C)C[C@H](O)[C@H]2C(=O)O [Amphotericin B] | did not | same | same | – | – | – | – | – | – | – | – | 16.6 | 6 | 18 | 6.5 | 6.2 | 5.4 | 6.7 | 5.8 | –
